Our source for the IC50 values is patent publication US9777008B2, “PRMT5 inhibitors and uses thereof” (Epizyme, Inc., priority 2012, dated 2017).

One may read the pIC50 as −log10 of the IC50, conventionally taken in molar units.

pIC50: −log10 of the molar value. A value given as a limit tells only on which side of the number the result lay.

In the experiment the target is PRMT5/MEP50 (Homo sapiens (Human), UniProt O14744). As to the kind of experiment: PRMT5 Biochemical Assay (PRMT5/MEP50 enzyme assay on peptide substrate, 3H-SAM Flashplate). The source says: S-adenosylmethionine (SAM), S-adenosylhomocysteine (SAH), bicine, KCl, Tween20, dimethylsulfoxide (DMSO), bovine skin gelatin (BSG), and Tris(2-carboxyethyl)phosphine hydrochloride solution (TCEP) were purchased from Sigma-Aldrich at the highest level of purity possible. ^3H-SAM was purchase from American Radiolabeled Chemicals with a specific activity of 80 Ci/mmol. 384-well streptavidin Flashplates were purchased from PerkinElmer.
PRMT5/MEP50, sequence (O14744 other isoform, or with tags, fused parts or gaps): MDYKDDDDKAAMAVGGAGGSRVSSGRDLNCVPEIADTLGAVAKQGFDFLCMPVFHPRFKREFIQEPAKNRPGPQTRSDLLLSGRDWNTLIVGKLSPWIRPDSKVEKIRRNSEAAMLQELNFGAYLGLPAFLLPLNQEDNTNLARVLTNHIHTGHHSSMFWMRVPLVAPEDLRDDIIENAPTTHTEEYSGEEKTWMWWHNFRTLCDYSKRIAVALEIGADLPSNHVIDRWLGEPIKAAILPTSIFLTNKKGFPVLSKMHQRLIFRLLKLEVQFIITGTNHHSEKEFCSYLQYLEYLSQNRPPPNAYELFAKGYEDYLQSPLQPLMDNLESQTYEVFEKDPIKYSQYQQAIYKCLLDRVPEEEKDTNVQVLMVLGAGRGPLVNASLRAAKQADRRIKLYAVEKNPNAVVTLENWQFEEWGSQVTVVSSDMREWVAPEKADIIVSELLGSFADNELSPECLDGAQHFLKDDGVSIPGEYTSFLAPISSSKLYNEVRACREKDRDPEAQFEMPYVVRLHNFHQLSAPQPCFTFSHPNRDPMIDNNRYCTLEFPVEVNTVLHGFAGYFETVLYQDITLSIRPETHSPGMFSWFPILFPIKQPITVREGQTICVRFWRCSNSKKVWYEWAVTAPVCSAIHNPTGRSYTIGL
PRMT5/MEP50, sequence (Q9BQA1 other isoform, or with tags, fused parts or gaps partner): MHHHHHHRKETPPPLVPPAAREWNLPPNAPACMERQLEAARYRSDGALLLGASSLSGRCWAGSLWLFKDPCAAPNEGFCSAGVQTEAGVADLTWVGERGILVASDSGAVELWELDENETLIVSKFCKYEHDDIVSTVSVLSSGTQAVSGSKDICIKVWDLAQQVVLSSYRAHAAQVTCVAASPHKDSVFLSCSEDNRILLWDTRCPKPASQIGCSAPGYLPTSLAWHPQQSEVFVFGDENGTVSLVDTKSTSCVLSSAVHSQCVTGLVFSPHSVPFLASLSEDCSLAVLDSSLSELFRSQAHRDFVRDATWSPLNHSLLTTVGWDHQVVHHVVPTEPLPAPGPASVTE
Peptide representative of human histone H4 residues 1-15 was synthesized with a C-terminal linker-affinity tag motif and a C-terminal amide cap by 21st Century Biochemicals. The peptide was high high-performance liquid chromatography (HPLC) purified to greater than 95% purity and confirmed by liquid chromatography mass spectrometry (LC-MS). The sequence was Ac-[…][K-Biot]-amide (SEQ ID NO.:3).
Molecular Biology: Full-length human PRMT5 (NM_006109.3) transcript variant 1 clone was amplified from a fetal brain cDNA library, incorporating flanking 5′ sequence encoding a FLAG tag ([…]) (SEQ ID NO.:4) fused directly to Ala 2 of PRMT5. Full-length human MEP50 (NM_024102) clone was amplified from a human testis cDNA library incorporating a 5′ sequence encoding a 6-histidine tag (MHHHHHH) (SEQ ID NO.:5) fused directly to Arg 2 of MEP50. The amplified genes were sublconed into pENTR/D/TEV (Life Technologies) and subsequently transferred by Gateway™ attL×attR recombination to pDEST8 baculvirus expression vector (Life Technologies).
Recombinant baculovirus and Baculovirus-Infected Insect Cells (BIIC) were generated according to Bac-to-Bac kit instructions (Life Technologies) and Wasilko, 2006, respectively. Protein over-expression was accomplished by infecting exponentially growing Spodoptera frugiperda (SF9) cell culture at 1.2×10^6 cell/ml with a 5000 fold dilution of BIIC stock. Infections were carried out at 27° C. for 72 hours, harvested by centrifugation, and stored at −80° C. for purification.
Flag-PRMT5/6His-MeP50 was eluted with 300 mM Imidazole in the same buffer. The purity of recovered protein was 87%. Reference: Wasilko, D. J. and S. E. Lee: “TIPS: titerless infected-cells preservation and scale-up” Bioprocess J., 5 (2006), pp. 29-32.
General Procedure for PRMT5/MEP50 Enzyme Assays on Peptide Substrates.
The assays were all performed in a buffer consisting of 20 mM Bicine (pH=7.6), 1 mM TCEP, 0.005% BSG, and 0.002% Tween20, prepared on the day of use. Compounds in 100% DMSO (1 ul) were spotted into a polypropylene 384-well V-bottom plates (Greiner) using a Platemate Plus outfitted with a 384-channel head (Thermo Scientific). DMSO (1 ul) was added to Columns 11, 12, 23, 24, rows A-H for the maximum signal control and 1 ul of SAH, a known product and inhibitor of PRMT5/MEP50, was added to columns 11, 12, 23, 24, rows I-P for the minimum signal control. A cocktail (40 ul) containing the PRMT5/MEP50 enzyme and the peptide was added by Multidrop Combi (Thermo-Fisher). The compounds were allowed to incubate with PRMT5/MEP50 for 30 min at 25 degrees Celsius, then a cocktail (10 ul) containing ^3H-SAM was added to initiate the reaction (final volume=51 ul). The final concentrations of the components were as follows: PRMT5/MEP50 was 4 nM, ^3H-SAM was 75 nM, peptide was 40 nM, SAH in the minimum signal control wells was 100 uM, and the DMSO concentration was 1%. The assays were stopped by the addition of non-radioactive SAM (10 ul) to a final concentration of 600 uM, which dilutes the ^3H-SAM to a level where its incorporation into the peptide substrate is no longer detectable. 50 ul of the reaction in the 384-well polypropylene plate was then transferred to a 384-well Flashplate and the biotinylated peptides were allowed to bind to the streptavidin surface for at least 1 hour before being washed three times with 0.1% Tween20 in a Biotek ELx405 plate washer. […]
Turning to `Cn1ccc2ccc(-c3ccnc(NCC(O)CN4CCc5ccccc5C4)c3)cc21` (stereo not shown) [Compound 227], the pIC50 is over 7.00.
Regarding `OC(CNc1cc(-c2ccc3ncn(C4CNC4)c3c2)ccn1)CN1CCc2ccccc2C1` (stereo not shown) [Compound 229], the pIC50 is over 7.00.
With `CN1CC(n2cnc3ccc(-c4ccnc(NCC(O)CN5CCc6ccccc6C5)c4)cc32)C1` (stereo not shown) [Compound 230] the figure was over 7.00; with `O=C(Cn1ccc2cnc(-c3ccnc(NCC(O)CN4CCc5ccccc5C4)c3)nc21)N1CCCC1` (stereo not shown) [Compound 233], over 7.00.
Regarding `O=C(Cn1ccc2cnc(-c3ccnc(NCC(O)CN4CCc5ccccc5C4)c3)nc21)N1CCOCC1` (stereo not shown) [Compound 234, 2-(2-(2-((3-(3,4-dihydroisoquinolin-2(1H)-yl)-2-hydroxypropyl)amino)pyridin-4-yl)-7H-pyrrolo[2,3-d]pyrimidin-7-yl)-1-morpholinoethanone], the negative-log IC50 (pIC50) is over 7.00.
Consider `Cn1cc2ccc(-c3ccnc(NCC(O)CN4CCc5ccccc5C4)c3)cc2n1` (stereo not shown) [Compound 236], for which the pIC50 was over 7.00.
With `Cn1cnc2ccc(-c3ccnc(NCC(O)CN4CCc5ccccc5C4)c3)nc21` (stereo not shown) [Compound 238, 1-(3,4-dihydroisoquinolin-2(1H)-yl)-3-((4-(3-methyl-3H-imidazo[4,5-b]pyridin-5-yl)pyridin-2-yl)amino)propan-2-ol] the figure was over 7.00.
Regarding `Cn1ccc2cnc(-c3ccnc(NCC(O)CN4CCc5ccccc5C4)c3)nc21` (stereo not shown) [Compound 239, 1-(3,4-dihydroisoquinolin-2(1H)-yl)-3-((4-(7-methyl-7H-pyrrolo[2,3-d]pyrimidin-2-yl)pyridin-2-yl)amino)propan-2-ol], the pIC50 is over 7.00.
Take `OC(CNc1cc(-c2ccc3ncn(C4CCNC4)c3c2)ccn1)CN1CCc2ccccc2C1` (stereo not shown) [Compound 240]: the pIC50 was over 7.00.
For the compound `OC(CNc1cc(-c2ccc3ncn(C4CCNCC4)c3c2)ccn1)CN1CCc2ccccc2C1` (stereo not shown) [Compound 241], the pIC50 is over 7.00.
As for `CNC(=O)Cn1ccc2cnc(-c3ccnc(NCC(O)CN4CCc5ccccc5C4)c3)nc21` (stereo not shown) [Compound 245], the pIC50 was over 7.00.
Turning to `O=C(Cn1ccc2cnc(-c3ccnc(NCC(O)CN4CCc5ccccc5C4)c3)nc21)N1CCCCC1` (stereo not shown) [Compound 246], the pIC50 was over 7.00.
`CN1CCN(C(=O)Cn2ccc3cnc(-c4ccnc(NCC(O)CN5CCc6ccccc6C5)c4)nc32)CC1` (stereo not shown) [Compound 247]: the pIC50 was over 7.00.
For `CN1CCC(n2cnc3ccc(-c4ccnc(NCC(O)CN5CCc6ccccc6C5)c4)cc32)C1` (stereo not shown) [Compound 250], the pIC50 is over 7.00.
On to `OC(CNc1cc(-c2ccc3ncn(C4CCOCC4)c3c2)ccn1)CN1CCc2ccccc2C1` (stereo not shown) [Compound 251, 1-(3,4-dihydroisoquinolin-2(1H)-yl)-3-((4-(1-(tetrahydro-2H-pyran-4-yl)-1H-benzo[d]imidazol-6-yl)pyridin-2-yl)amino)propan-2-ol], for which the pIC50 is over 7.00.
In the case of `CN1CCC(n2cnc3ccc(-c4ccnc(NCC(O)CN5CCc6ccccc6C5)c4)cc32)CC1` (stereo not shown) [Compound 252], the pIC50 is over 7.00.
As to `OC(COc1cccc(-c2ncc3ccn(C4CCNCC4)c3n2)c1)CN1CCc2ccccc2C1` (stereo not shown) [Compound 253], the pIC50 is over 7.00.
With `OC(CNc1cc(-c2ncc3ccn(C4CNC4)c3n2)ccn1)CN1CCc2ccccc2C1` (stereo not shown) [Compound 254] the figure was over 7.00.
Turning to `OC(CNc1cc(-c2ncc3ccn(C4CCNCC4)c3n2)ccn1)CN1CCc2ccccc2C1` (stereo not shown) [Compound 255], the pIC50 was over 7.00.
Consider `CC(=O)N1CCC(n2ccc3cnc(-c4ccnc(NCC(O)CN5CCc6ccccc6C5)c4)nc32)CC1` (stereo not shown) [Compound 256], for which the pIC50 is over 7.00.
With `O[C@@H](COc1cccc(-c2cccc3cccnc23)c1)CN1CCc2ccccc2C1` [Compound 257, (R)-1-(3,4-dihydroisoquinolin-2(1H)-yl)-3-(3-(quinolin-8-yl)phenoxy)propan-2-ol] the figure was over 7.00; with `O[C@H](COc1cccc(-c2cccc3cccnc23)c1)CN1CCc2ccccc2C1` [Compound 258, (S)-1-(3,4-dihydroisoquinolin-2(1H)-yl)-3-(3-(quinolin-8-yl)phenoxy)propan-2-ol], 6.00 to 7.00; with `Cn1cncc1C(=O)Nc1cccc(OC[C@H](O)CN2CCc3ccccc3C2)c1` [Compound 259], 6.00 to 7.00.
On to `Cn1cncc1C(=O)Nc1cccc(OC[C@@H](O)CN2CCc3ccccc3C2)c1` [Compound 260], for which the pIC50 is 5.00 to 6.00.
As for `Cn1cc2ccc(-c3cccc(NCC(O)CN4CCc5ccccc5C4)c3)nc2n1` (stereo not shown) [Compound 261], the pIC50 was over 7.00.
As for `OC(CNc1cc(-c2ccc3ncn(C4COC4)c3c2)ccn1)CN1CCc2ccccc2C1` (stereo not shown) [Compound 265], the pIC50 is over 7.00.
In the case of `Cc1ncc2ccc(-c3cccc(OCC(O)CN4CCc5ccccc5C4)c3)cn12` (stereo not shown) [Compound 266, 1-(3,4-dihydroisoquinolin-2(1H)-yl)-3-(3-(3-methylimidazo[1,5-a]pyridin-6-yl)phenoxy)propan-2-ol], the pIC50 is over 7.00.
For `OC(COc1cccc(-c2ccc3ncn(C4COC4)c3c2)c1)CN1CCc2ccccc2C1` (stereo not shown) [Compound 269], the pIC50 was over 7.00.
Regarding `CC(=O)N(CC(O)CN1CCc2ccccc2C1)c1cccc(-c2ccc3ncn(C)c3c2)c1` (stereo not shown) [Compound 273, N-(3-(3,4-dihydroisoquinolin-2(1H)-yl)-2-hydroxypropyl)-N-(3-(1-methyl-1H-benzo[d]imidazol-6-yl)phenyl)acetamide], the pIC50 is over 7.00.
For the compound `Cn1cnc2ccc(-c3ccnc(NC[C@H](O)CN4CCc5ccccc5C4)c3)cc21` [Compound 275], the pIC50 is over 7.00.
`Cn1cnc2ccc(-c3ccnc(NC[C@@H](O)CN4CCc5ccccc5C4)c3)cc21` [Compound 276]: the pIC50 is 6.00 to 7.00.
With `Cn1cnc2ccc(-c3cccc(OCC(O)CN4Cc5ccccc5C(F)(F)C4)c3)cc21` (stereo not shown) [Compound 277] the figure was under 5.00; with `CN1CCCCC1COCC(O)CN1CCc2ccccc2C1` (stereo not shown) [Compound 289], under 4.40; with `CN1CCC(OCC(O)CN2CCc3ccccc3C2)CC1` (stereo not shown) [Compound 293], under 4.40.
Consider `CCn1ccnc1COCC(O)CN1CCc2ccccc2C1` (stereo not shown) [Compound 295], for which the pIC50 was under 4.40.
As to `OC(COC1CCCNC1)CN1CCc2ccccc2C1` (stereo not shown) [Compound 297], the pIC50 was under 4.40.
Consider `OC(COC1CCNCC1)CN1CCc2ccccc2C1` (stereo not shown) [Compound 298], for which the pIC50 was under 4.40.
`OC(COCC1CCCCO1)CN1CCc2ccccc2C1` (stereo not shown) [Compound 304]: the pIC50 was under 4.40.
Turning to `OC(COC1CCNC1)CN1CCc2ccccc2C1` (stereo not shown) [Compound 306], the pIC50 is under 4.40.
Regarding `CN1CCC(OCC(O)CN2CCc3ccccc3C2)C1` (stereo not shown) [Compound 307], the pIC50 was under 4.40.
